Measurements published in ChEMBL document CHEMBL3792323, “Piperidine derivatives as nonprostanoid IP receptor agonists” (Bioorg Med Chem Lett, 2016).

Assays:
[1] = Cmax in fasted dog at 2.5 mg/kg, po; format: ADME, organism-based, Canis lupus familiaris; set-up: dose 2.5 mg/kg, route oral; conditions: in vivo
[2] = Oral bioavailability in fasted dog at 2.5 mg/kg; format: ADME, organism-based, Canis lupus familiaris; conditions: in vivo
[3] = biological target: Prostacyclin receptor (Homo sapiens, UniProt P43119); experiment: Binding affinity to human IP receptor by competitive binding assay
Chain of Prostacyclin receptor (P43119 whole entry): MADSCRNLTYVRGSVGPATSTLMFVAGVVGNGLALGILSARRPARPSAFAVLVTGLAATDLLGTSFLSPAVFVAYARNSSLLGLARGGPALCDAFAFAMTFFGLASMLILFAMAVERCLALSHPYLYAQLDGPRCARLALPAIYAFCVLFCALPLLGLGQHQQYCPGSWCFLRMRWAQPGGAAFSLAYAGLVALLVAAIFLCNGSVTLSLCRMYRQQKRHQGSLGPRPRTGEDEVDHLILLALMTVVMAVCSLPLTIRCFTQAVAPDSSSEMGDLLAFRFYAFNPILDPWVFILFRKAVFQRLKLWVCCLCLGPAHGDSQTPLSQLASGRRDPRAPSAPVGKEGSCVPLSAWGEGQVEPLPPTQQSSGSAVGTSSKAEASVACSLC

[4] = biological target: Prostaglandin F2-alpha receptor (Homo sapiens, UniProt P43088); experiment: Binding affinity to human FP receptor by competitive binding assay
Chain of Prostaglandin F2-alpha receptor (P43088 whole entry): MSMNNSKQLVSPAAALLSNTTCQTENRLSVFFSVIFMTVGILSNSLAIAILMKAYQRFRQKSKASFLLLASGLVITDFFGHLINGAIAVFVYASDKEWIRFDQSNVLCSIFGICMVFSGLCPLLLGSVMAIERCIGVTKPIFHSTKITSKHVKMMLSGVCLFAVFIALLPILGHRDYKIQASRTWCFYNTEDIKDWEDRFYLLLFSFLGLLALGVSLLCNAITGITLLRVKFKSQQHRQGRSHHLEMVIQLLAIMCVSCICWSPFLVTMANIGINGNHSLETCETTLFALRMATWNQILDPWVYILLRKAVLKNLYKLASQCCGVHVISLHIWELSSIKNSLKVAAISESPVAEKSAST

[5] = biological target: T1, Prostaglandin E2 receptor EP3 subtype (Homo sapiens, UniProt P43115); experiment: Binding affinity to human EP3 receptor by competitive binding assay
T1 sequence (P43115 whole entry): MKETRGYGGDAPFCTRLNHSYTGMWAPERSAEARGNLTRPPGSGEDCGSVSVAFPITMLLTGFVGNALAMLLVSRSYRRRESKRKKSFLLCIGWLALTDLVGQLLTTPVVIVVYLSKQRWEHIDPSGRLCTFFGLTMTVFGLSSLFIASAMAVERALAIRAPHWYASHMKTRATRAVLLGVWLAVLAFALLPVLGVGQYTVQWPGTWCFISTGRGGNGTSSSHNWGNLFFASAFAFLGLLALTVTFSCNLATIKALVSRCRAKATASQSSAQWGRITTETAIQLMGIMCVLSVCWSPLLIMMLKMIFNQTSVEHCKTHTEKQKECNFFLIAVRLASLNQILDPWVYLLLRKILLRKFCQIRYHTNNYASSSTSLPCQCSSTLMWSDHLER

[6] = biological target: T2, Prostaglandin E2 receptor EP1 subtype (Homo sapiens, UniProt P34995); experiment: Binding affinity to human EP1 receptor by competitive binding assay
T2 sequence (P34995 whole entry): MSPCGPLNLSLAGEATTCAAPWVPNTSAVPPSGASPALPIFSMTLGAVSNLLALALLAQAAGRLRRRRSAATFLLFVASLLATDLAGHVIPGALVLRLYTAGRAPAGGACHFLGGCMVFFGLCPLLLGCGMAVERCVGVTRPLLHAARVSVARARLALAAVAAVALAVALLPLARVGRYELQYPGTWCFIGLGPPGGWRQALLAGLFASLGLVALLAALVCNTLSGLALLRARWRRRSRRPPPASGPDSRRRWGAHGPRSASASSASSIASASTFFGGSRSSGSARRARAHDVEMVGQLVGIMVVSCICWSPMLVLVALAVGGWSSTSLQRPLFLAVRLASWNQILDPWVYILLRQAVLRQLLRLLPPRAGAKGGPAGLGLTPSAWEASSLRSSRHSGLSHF

[7] = biological target: T3, Thromboxane A2 receptor (Homo sapiens, UniProt P21731); experiment: Binding affinity to human TP receptor by competitive binding assay
T3 sequence (P21731 whole entry): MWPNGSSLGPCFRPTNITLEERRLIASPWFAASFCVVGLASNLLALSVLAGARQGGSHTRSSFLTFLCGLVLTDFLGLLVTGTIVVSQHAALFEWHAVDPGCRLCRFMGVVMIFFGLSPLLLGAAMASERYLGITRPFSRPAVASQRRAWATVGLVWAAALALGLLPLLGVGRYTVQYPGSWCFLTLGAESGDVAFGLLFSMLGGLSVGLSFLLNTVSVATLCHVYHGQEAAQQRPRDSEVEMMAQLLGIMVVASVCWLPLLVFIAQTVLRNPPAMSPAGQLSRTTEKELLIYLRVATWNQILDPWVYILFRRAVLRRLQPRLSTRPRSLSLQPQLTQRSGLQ

[8] = biological target: Prostaglandin E2 receptor EP2 subtype (Homo sapiens, UniProt P43116); experiment: Binding affinity to human EP2 receptor by competitive binding assay
Chain of Prostaglandin E2 receptor EP2 subtype (P43116 whole entry): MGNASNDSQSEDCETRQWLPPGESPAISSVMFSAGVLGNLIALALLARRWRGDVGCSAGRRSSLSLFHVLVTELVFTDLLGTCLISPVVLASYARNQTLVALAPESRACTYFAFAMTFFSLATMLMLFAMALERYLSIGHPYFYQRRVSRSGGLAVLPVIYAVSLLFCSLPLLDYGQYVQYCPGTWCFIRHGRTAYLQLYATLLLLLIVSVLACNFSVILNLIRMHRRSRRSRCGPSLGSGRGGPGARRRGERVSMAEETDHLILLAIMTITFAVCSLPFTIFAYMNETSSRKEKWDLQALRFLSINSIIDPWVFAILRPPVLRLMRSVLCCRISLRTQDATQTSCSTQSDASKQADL

[9] = biological target: Prostaglandin E2 receptor EP4 subtype (Homo sapiens, UniProt P35408); experiment: Binding affinity to human EP4 receptor by competitive binding assay
Chain of Prostaglandin E2 receptor EP4 subtype (P35408 whole entry): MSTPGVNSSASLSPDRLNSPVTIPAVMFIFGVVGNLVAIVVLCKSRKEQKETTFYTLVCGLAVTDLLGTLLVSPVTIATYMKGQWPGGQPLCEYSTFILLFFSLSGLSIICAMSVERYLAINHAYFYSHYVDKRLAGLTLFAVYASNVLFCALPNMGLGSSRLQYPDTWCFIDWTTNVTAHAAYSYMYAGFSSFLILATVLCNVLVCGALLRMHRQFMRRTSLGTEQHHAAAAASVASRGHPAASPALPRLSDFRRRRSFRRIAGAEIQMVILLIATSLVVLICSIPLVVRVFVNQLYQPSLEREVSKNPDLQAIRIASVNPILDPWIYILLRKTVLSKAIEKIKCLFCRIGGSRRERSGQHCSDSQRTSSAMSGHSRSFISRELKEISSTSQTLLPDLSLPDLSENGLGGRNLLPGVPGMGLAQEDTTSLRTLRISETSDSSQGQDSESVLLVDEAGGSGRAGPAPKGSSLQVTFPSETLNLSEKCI

Row | Cmax [1] | bioavailability [2] | Ki [3] | Ki [4] | Ki [5] | Ki [6] | Ki [7] | Ki [8] | Ki [9] | Compound
1 | 138 ng/mL | 13% | – | – | – | – | – | – | – | O=C(O)COc1cccc2c1OCCN2CCN(C(=O)c1ccccn1)c1ccc(Cl)cc1
2 | 1610 ng/mL | 77% | 0.99 µM | > 50 µM | > 50 µM | > 50 µM | > 50 µM | > 50 µM | > 50 µM | Cc1ccc(N(CCN2CCC(OCC(=O)O)CC2)C(=O)c2ccccc2)cc1
